Experimental data: ChEMBL document CHEMBL1148388, “Restriction of a peptide turn conformation and conformational analysis of guanidino group using arginine-proline fused amino acids: application to mini atrial natriuretic peptide on binding to the receptor” (J Med Chem, 2004)
Numbered stars: 1 amine (or outer) side, 2 acyl side, 3 side chain; on linkers, the order of the positions; unused ones are H or OH. Bridge positions count the residues as written; N and C are the ends. Square brackets hold non-standard residues; d marks the D form. Peptide text beside a SMILES is read from it. X2 = NC(N)=NCC[C@@H]1C[C@@H](C(=O)[*:2])N([*:1])C1; X1 = NC(N)=NCC[C@H]1C[C@@H](C(=O)[*:2])N([*:1])C1

Assay: Effective concentration required for production of cGMP in Chinese hamster ovary cells expressing natriuretic peptide receptor A (NPR-A)
Type: functional, cell-based
Work on `CC[C@H](C)[C@@H]1NC(=O)[C@H](CCCN=C(N)N)NC(=O)[C@H](CC(=O)O)NC(=O)[C@H](CCSC)NC(=O)[C@@H]2C[C@H](CCN=C(N)N)CN2C(=O)CNC(=O)CNC(=O)[C@H](Cc2ccccc2)NC(=O)[C@H](Cc2c[nH]cn2)NC(=O)[C@@H](NC(=O)[C@@H](N)CCSC)CSSC[C@@H](C(=O)N[C@@H](Cc2ccc(O)cc2)C(=O)N[C@@H](CCCN=C(N)N)C(N)=O)NC(=O)[C@H](CO)NC1=O` (H-MCHFGG[X1]MDRISCYR-NH2; disulfide 2-13) yielded an EC50 of 4.6 nM. With `CC[C@H](C)[C@@H]1NC(=O)[C@H](CCCN=C(N)N)NC(=O)[C@H](CC(=O)O)NC(=O)[C@H](CCSC)NC(=O)[C@@H]2CCCN2C(=O)CNC(=O)CNC(=O)[C@H](Cc2ccccc2)NC(=O)[C@H](Cc2c[nH]cn2)NC(=O)[C@@H](NC(=O)[C@@H](N)CCSC)CSSC[C@@H](C(=O)N[C@@H](Cc2ccc(O)cc2)C(=O)N[C@@H](CCCN=C(N)N)C(N)=O)NC(=O)[C@H](CO)NC1=O` the EC50 was 58.1 nM. Compound `CC[C@H](C)[C@@H]1NC(=O)[C@H](CCCN=C(N)N)NC(=O)[C@H](CC(=O)O)NC(=O)[C@H](CCSC)NC(=O)[C@H](C)NC(=O)CNC(=O)CNC(=O)[C@H](Cc2ccccc2)NC(=O)[C@H](Cc2c[nH]cn2)NC(=O)[C@@H](NC(=O)[C@@H](N)CCSC)CSSC[C@@H](C(=O)N[C@@H](Cc2ccc(O)cc2)C(=O)N[C@@H](CCCN=C(N)N)C(N)=O)NC(=O)[C@H](CO)NC1=O` has an EC50 of 137 nM. With `CC[C@H](C)[C@@H]1NC(=O)[C@H](CCCN=C(N)N)NC(=O)[C@H](CC(=O)O)NC(=O)[C@H](CCSC)NC(=O)[C@@H]2C[C@@H](CCN=C(N)N)CN2C(=O)CNC(=O)CNC(=O)[C@H](Cc2ccccc2)NC(=O)[C@H](Cc2c[nH]cn2)NC(=O)[C@@H](NC(=O)[C@@H](N)CCSC)CSSC[C@@H](C(=O)N[C@@H](Cc2ccc(O)cc2)C(=O)N[C@@H](CCCN=C(N)N)C(N)=O)NC(=O)[C@H](CO)NC1=O` (H-MCHFGG[X2]MDRISCYR-NH2; disulfide 2-13) the EC50 was 1.3 nM.

Assay: Relative biological activity was measured as EC50 analogue/ EC50 miniANP
Type: functional
For `CC[C@H](C)[C@@H]1NC(=O)[C@@H](CCCN=C(N)N)NC(=O)[C@H](CC(=O)O)NC(=O)[C@@H](CCSC)NC(=O)[C@@H]2CCCN2C(=O)CNC(=O)CNC(=O)[C@@H](Cc2ccccc2)NC(=O)[C@H](Cc2c[nH]cn2)NC(=O)[C@@H](NC(=O)[C@@H](N)CCSC)CSSC[C@H](C(=O)N[C@@H](Cc2ccc(O)cc2)C(=O)N[C@@H](CCCN=C(N)N)C(N)=O)NC(=O)[C@@H](CO)NC1=O`, the Ratio was 18.7. With `CC[C@H](C)[C@@H]1NC(=O)[C@@H](CCCN=C(N)N)NC(=O)[C@H](CC(=O)O)NC(=O)[C@@H](CCSC)NC(=O)[C@H](CCCN=C(N)N)NC(=O)CNC(=O)CNC(=O)[C@@H](Cc2ccccc2)NC(=O)[C@H](Cc2c[nH]cn2)NC(=O)[C@@H](NC(=O)[C@@H](N)CCSC)CSSC[C@H](C(=O)N[C@@H](Cc2ccc(O)cc2)C(=O)N[C@@H](CCCN=C(N)N)C(N)=O)NC(=O)[C@@H](CO)NC1=O` [MiniANP] the Ratio was 1. For `CC[C@H](C)[C@@H]1NC(=O)[C@@H](CCCN=C(N)N)NC(=O)[C@H](CC(=O)O)NC(=O)[C@@H](CCSC)NC(=O)[C@H](C)NC(=O)CNC(=O)CNC(=O)[C@@H](Cc2ccccc2)NC(=O)[C@H](Cc2c[nH]cn2)NC(=O)[C@@H](NC(=O)[C@@H](N)CCSC)CSSC[C@H](C(=O)N[C@@H](Cc2ccc(O)cc2)C(=O)N[C@@H](CCCN=C(N)N)C(N)=O)NC(=O)[C@@H](CO)NC1=O`, the Ratio was 44.3.
